Results on 31 compounds are retold here after ChEMBL document CHEMBL1134731, “1,3-Biarylureas as selective non-peptide antagonists of the orexin-1 receptor” (Bioorg Med Chem Lett, 2001).

Data set [1] concerns the target T1, Orexin/Hypocretin receptor type 1 (Homo sapiens) (UniProt O43613).
T1 sequence (whole entry): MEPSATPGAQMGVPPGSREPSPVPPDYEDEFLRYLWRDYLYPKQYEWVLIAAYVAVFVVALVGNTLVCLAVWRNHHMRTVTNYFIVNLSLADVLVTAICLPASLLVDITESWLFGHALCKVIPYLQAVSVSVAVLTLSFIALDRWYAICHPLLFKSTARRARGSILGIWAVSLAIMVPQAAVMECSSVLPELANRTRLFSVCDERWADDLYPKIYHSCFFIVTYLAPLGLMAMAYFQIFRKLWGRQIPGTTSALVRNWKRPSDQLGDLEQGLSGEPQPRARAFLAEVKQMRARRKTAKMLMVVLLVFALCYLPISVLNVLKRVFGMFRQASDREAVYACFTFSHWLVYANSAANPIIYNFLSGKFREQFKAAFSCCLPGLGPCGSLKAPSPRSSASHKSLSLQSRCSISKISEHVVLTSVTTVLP
As to the kind of experiment: Binding affinity towards orexin receptor type 1.

For data set [2], the target named is 5-hydroxytryptamine receptor 2B (Homo sapiens, UniProt P41595). Nature of the data set: Binding affinity against 5-hydroxytryptamine 2B receptor.
Data set [3] in a line: Compound was tested in vivo for steady state brain-blood ratio after intravenous infusion of 1.8 mg/kg/h free base drug for 12h. The class given is functional.
A short description of data set [4]: Steady state concentration was evaluated. The class given is ADME.
The target in data set [5] is T2, 5-hydroxytryptamine receptor 2C (Homo sapiens, UniProt P28335).
T2 sequence (P28335 whole entry): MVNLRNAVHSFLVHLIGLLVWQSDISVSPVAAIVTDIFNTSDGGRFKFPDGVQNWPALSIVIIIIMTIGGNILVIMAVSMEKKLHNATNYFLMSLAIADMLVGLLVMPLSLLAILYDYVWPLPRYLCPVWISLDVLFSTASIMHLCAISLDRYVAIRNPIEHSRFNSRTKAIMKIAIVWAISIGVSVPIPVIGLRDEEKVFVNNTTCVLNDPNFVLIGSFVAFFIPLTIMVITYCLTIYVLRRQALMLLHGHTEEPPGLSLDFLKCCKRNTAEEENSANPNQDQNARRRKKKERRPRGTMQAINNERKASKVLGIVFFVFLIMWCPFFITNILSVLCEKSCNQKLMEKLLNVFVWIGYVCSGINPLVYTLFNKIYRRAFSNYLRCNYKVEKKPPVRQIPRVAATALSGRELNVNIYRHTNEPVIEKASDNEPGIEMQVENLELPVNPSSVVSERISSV
Nature of the data set: Binding affinity against 5-hydroxytryptamine 2C receptor.

The target in data set [6] is T3, Orexin receptor type 2 (Homo sapiens) (UniProt O43614).
T3 sequence (whole entry): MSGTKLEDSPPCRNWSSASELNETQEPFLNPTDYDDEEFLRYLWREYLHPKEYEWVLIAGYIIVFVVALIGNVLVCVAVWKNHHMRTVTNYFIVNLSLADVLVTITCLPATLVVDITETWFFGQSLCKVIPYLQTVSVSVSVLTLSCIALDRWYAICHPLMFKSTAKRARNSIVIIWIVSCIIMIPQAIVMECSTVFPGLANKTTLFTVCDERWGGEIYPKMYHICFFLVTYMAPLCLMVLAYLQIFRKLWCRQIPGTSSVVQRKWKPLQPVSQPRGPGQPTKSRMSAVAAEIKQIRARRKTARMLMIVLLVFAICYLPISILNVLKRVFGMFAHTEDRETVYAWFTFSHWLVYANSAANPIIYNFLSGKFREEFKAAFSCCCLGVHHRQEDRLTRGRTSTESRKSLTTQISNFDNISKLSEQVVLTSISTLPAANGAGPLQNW
Description: Compound was evaluated for its binding affinity towards Orexin receptor type 2

Data set [7] is described as follows: Brain level determined after 2 hr from ip bolus dosing of 10 mg/kg. The conditions noted are these: route intraperitoneal. The class given is functional.
Data set [8] can be described thus: Brain level determined after 4 hr from a bolus 10 mg/kg ip dosing. The class given is functional. The conditions noted are these: route intraperitoneal.
Data set [9] is described as follows: Half life was evaluated in vivo after intraperitoneal administration. The conditions noted are these: ip.
Data set [10] can be described thus: in vivo. The conditions noted are these: eutheria, po.

Sequence of 5-hydroxytryptamine receptor 2B (P41595 whole entry, the tested form may be a part): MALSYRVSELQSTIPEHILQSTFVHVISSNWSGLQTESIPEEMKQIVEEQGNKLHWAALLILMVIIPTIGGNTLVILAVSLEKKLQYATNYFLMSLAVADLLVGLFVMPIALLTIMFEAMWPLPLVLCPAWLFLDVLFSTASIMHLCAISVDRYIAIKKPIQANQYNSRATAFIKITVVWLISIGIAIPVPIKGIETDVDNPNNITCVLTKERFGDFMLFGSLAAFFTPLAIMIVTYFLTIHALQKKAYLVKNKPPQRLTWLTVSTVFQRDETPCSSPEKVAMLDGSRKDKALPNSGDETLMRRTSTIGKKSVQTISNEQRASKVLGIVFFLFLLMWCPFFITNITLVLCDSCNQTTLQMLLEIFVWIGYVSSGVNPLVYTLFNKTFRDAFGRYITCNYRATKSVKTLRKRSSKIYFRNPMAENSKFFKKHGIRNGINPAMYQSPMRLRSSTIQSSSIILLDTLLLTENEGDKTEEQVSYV

Compound `CN(C)c1cccc(NC(=O)Nc2ccnc3ccccc23)c1` displayed a pKb in [1] of 6.1. `Cn1ccc2cc(NC(=O)Nc3ccnc4cccnc34)ccc21` came in with a pKb in data set [1] of 7.3. Take `COc1ccc(NC(=O)Nc2ccnc3ccccc23)cc1OC`: in data set [1], the pKb was under 6.3. With `CSc1ccc(NC(=O)Nc2ccnc3ccccc23)cc1`, the inhibitory constant (Ki) in data set [2] and in data set [5] was 31.6 nM each time. For the same compound, the negative logarithm of the Kb (pKb) in data set [1] was 7.9. Also, the Ratio in data set [3] turned out to be 0.1. Also, the Css in [4] was determined as 1000 nM. Consider `Cc1nc2ccc(NC(=O)Nc3ccnc4ncccc34)cc2o1`, for which the pKb in data set [1] was 6.5.

As to `N#Cc1ccc(NC(=O)Nc2ccnc3ccccc23)cc1`, the negative-log Kb (pKb) in data set [1] was under 6.2. In data set [1], `CSc1ccc(NC(=O)Nc2ccnc3cccnc23)cc1` showed a negative-log Kb (pKb) of 7.5.

In the case of `Cn1ccc2cc(NC(=O)Nc3ccnc4ccccc34)ccc21`, the Ki is 2.51 nM in data set [2] and 25.1 nM in data set [5]. Besides, the pKb in data set [1] amounted to 7.5. `O=C(Nc1ccc(N2CCCC2)cc1)Nc1ccnc2ccccc12` showed a pKb in data set [1] of 6.4. In the case of `Cc1nc2ccc(NC(=O)Nc3ccnc4cccnc34)cc2o1`, the inhibition constant (Ki) was 3980 nM in data set [2] and over 5010 nM in [5]. For the same compound, the negative-log Kb (pKb) in data set [6] amounted to 5.7; in data set [1] it was 7.4. Further, the Brain level was 3.8 µM in data set [7] and under 30 nM in data set [8]. In data set [9], this compound showed a half-life of 24 min. Moreover, in data set [3], the Ratio was 0.4. This compound also showed a Css in data set [4] of 490 nM. In data set [10], this compound returned a bioavailability of 10%. In turn, `Cn1ccc2cc(NC(=O)Nc3ccncc3)ccc21` displayed a pKb in data set [1] of under 5.

As to `CN(C)c1ccc(NC(=O)Nc2ccnc3ccccc23)cc1`, the Ki is 79.4 nM in data set [2] and 126 nM in [5]. In data set [1], this compound returned a negative logarithm of the Kb (pKb) of 7.8. For the same compound, the Ratio in [3] is on record as 0.06. Further, in data set [4], the Css stood at 4200 nM. In turn, `O=C(Nc1ccc2c(ccn2Cc2ccccc2)c1)Nc1ccnc2ccccc12` returned a negative logarithm of the Kb (pKb) in data set [1] of under 6.1. Compound `O=C(Nc1ccc2ncoc2c1)Nc1ccnc2ccccc12` showed a negative-log Kb (pKb) in data set [1] of 7. The compound `O=C(Nc1ccc2[nH]ccc2c1)Nc1ccnc2ccccc12` showed a negative logarithm of the Kb (pKb) in [1] of 6.2.

Turning to `Cc1cc2cc(NC(=O)Nc3ccnc4ccccc34)ccc2n1C`, the Ki is 3.98 nM in [2] and 79.4 nM in [5]. In the case of `Cc1nc2ccc(NC(=O)Nc3ccnc4ccccc34)cc2o1`, the inhibition constant Ki in data set [2] and in [5] was 631 nM in each case. This compound registered a pKb in data set [1] of 7.7.

With `COc1ccc(NC(=O)Nc2ccnc3ccccc23)cc1`, in [1], the pKb is 6.8. With `CCN(CC)c1ccc(NC(=O)Nc2ccnc3ccccc23)cc1`, the figures for the inhibition constant (Ki) in [2] and in [5] were 50.1 nM and 31.6 nM, respectively. In data set [1], this compound showed a pKb of 7.4. For the same compound, the Ratio in [3] stood at 0.16. Further, in [4], the Css amounted to 700 nM. On to `COc1ccc(NC(=O)Nc2ccnc3ccccc23)cc1Cl`, for which the Ki was 15.8 nM in data set [2] and 50.1 nM in data set [5]. `O=C(Nc1ccc2ocnc2c1)Nc1ccnc2ccccc12` had a pKb in data set [1] of under 6.2.

On to `CN1CCc2cc(NC(=O)Nc3ccnc4ccccc34)ccc21`, for which the Ki in [2] is 12.6 nM; in [5], 50.1 nM. Besides, the pKb in data set [1] was 7.6. Consider `Cn1ccc2cc(NC(=O)Nc3ncnc4ccccc34)ccc21`, for which the pKb in data set [1] was under 6.3. In the case of `Nc1ccc(NC(=O)Nc2ccnc3ccccc23)cc1`, the negative-log Kb (pKb) in data set [1] is under 6.1. Take `O=C(Nc1ccc2c(c1)OCCCO2)Nc1ccnc2ccccc12`: the pKb in [1] was found to be 7.4. Turning to `Cc1nc2ccc(NC(=O)Nc3ccnc4ccncc34)cc2o1`, the pKb in [1] was 5.9. Compound `O=C(Nc1ccccc1)Nc1ccnc2ccccc12` yielded a pKb in [1] of under 6.1. Same read-out and setting: the result for `Cn1ccc2cc(NC(=O)Nc3cccc4ccccc34)ccc21` reads under 6.3; that for `CN(C)c1ccc(NC(=O)Nc2ccnc3ccccc23)cc1Cl`, 7.4; that for `O=C(Nc1cccc(Cl)c1)Nc1ccnc2ccccc12`, 6.4. The compound `COc1cccc(NC(=O)Nc2ccnc3ccccc23)c1` came in with a pKb in data set [1] of 6.6.

As a reminder, the pKb is the Kb on a negative log10 scale, so that one unit is a factor of ten. Read a low pKb as a large Kb. Broadly, the Ki is a measure of affinity in units of concentration, obtained from inhibition or displacement. For orientation: half-life means how long it takes for the measured level to halve. A lower half-life goes with fast loss. In general, bioavailability refers to dose-corrected exposure relative to a reference, in per cent.
